Data from ChEMBL document CHEMBL5360528, “A systematic review on the kappa opioid receptor and its ligands: New directions for the treatment of pain, anxiety, depression, and drug abuse” (Eur J Med Chem, 2022).
Where a SMILES comes first, the peptide text is derived from it. [ ]: non-standard residue; d: D form. βAla = NCCC(=O)O

Experiments:
[1] = target: Kappa-type opioid receptor (Mus musculus, UniProt P33534); test: Agonist activity at KOR in mouse vas deferens assessed as inhibition of electrically evoked vas deferens contraction
Mus musculus [2] = test: Antinociceptive activity in sc dosed Ach-induced mouse assessed as inhibition of abdominal constriction; format: functional
Mus musculus [3] = test: Antinociceptive activity in sc dosed mouse assessed as inhibition of acetic acid-induced abdominal constrictions by writhing test; format: functional
[4] = target: T1, Kappa-type opioid receptor (Homo sapiens, UniProt P41145); test: Binding affinity to human recombinant KOR assessed as inhibition constant
[5] = target: T2, Delta-type opioid receptor (Homo sapiens, UniProt P41143); test: Binding affinity to human DOR assessed as inhibition constant
Mus musculus [6] = test: Antinociceptive activity in ip dosed mouse assessed as inhibition of acetic acid-induced abdominal constrictions by writhing test; format: functional
Mus musculus [7] = test: Antinociceptive activity in sc dosed mouse measured after 60 mins by warm water tail-flick assay; format: functional; conditions: 1 h
[8] = target: T1, Kappa-type opioid receptor; test: Binding affinity to KOR (unknown origin) assessed as inhibition constant
Mus musculus [9] = test: Antinociceptive activity in CD-1 mouse assessed as maximum possible effect at 10 nmol, icv measured after 15 mins by tail-flick test; format: functional; conditions: 0.25 h
Mu-type opioid receptor [10] = target: T3, Mu-type opioid receptor (Homo sapiens, UniProt P35372); test: Binding affinity to MOR (unknown origin) assessed as inhibition constant by radioligand binding assay
[11] = target: T1, Kappa-type opioid receptor; test: Agonist activity at KOR (unknown origin) by measuring cAMP inhibition; format: functional
Mu-type opioid receptor [12] = target: T3, Mu-type opioid receptor; test: Agonist activity at human MOR expressed in CHO-K1 cells assessed as inhibition of forskolin-stimulated cAMP accumulation incubated for 45 mins by cAMP HTRF assay; format: functional, cell-based
[13] = target: T2, Delta-type opioid receptor; test: Binding affinity to DOR (unknown origin) assessed as inhibition constant by ratio ligand binding assay
Mu-type opioid receptor [14] = target: T3, Mu-type opioid receptor; test: Binding affinity to human MOR expressed in HEK293 cells assessed as inhibition constant by GTPgammaS assay; format: cell-based
[15] = target: T1, Kappa-type opioid receptor; test: Binding affinity to wild type human KOR assessed as inhibition constant
[16] = target: T2, Delta-type opioid receptor; test: Binding affinity human DOR expressed in CHO cells assessed as inhibition constant by radio ligand binding assay; format: cell-based
Mus musculus [17] = species: Mus musculus; test: Antinociceptive activity in C57BL/6 mouse model of acute thermal pain assessed as paw withdrawal thermal threshold time by hot plate test; format: functional
Mus musculus [18] = test: Antinociceptive activity in C57BL/6 mouse model of acute thermal pain assessed as paw withdrawal thermal threshold time at 1 mg/kg, po measured after 4 hrs by hot plate test; format: functional
Mus musculus [19] = species: Mus musculus; test: Antinociceptive activity in Sprague-Dawley mouse assessed as inhibition of acetic acid-induced abdominal constrictions; format: functional
Mus musculus [20] = species: Mus musculus; test: Antinociceptive activity in Sprague-Dawley mouse assessed as inhibition of acetic acid-induced abdominal constrictions in presence of naloxone; format: functional
Mus musculus [21] = species: Mus musculus; test: Antinociceptive activity in CFA-induced mechanical allodynia CD1 mouse model assessed as reduction in mechanical allodynia; format: functional
Mus musculus [22] = test: Analgesic activity in iv dosed DBTC-induced neuropathic pain CD1 mouse model assessed as effective dose measured for 1 weeks; format: functional; conditions: CD1, 168 h
Mus musculus [23] = test: Antinociceptive activity in CFA-induced mechanical allodynia in CD1 mouse model assessed as reduction in nociceptive response by measuring effective dose at ip administration; format: functional
Mus musculus [24] = test: Antinociceptive activity in CFA-induced mechanical allodynia in CD1 mouse model assessed as reduction in nociceptive response by measuring effective dose at iv administration; format: functional
Mus musculus [25] = species: Mus musculus; test: Analgesic activity in acetic acid induced mouse assessed as assessed as reduction in acetic acid induced writhing […]; format: functional
Mus musculus [26] = test: Analgesic activity in sc dosed acetic acid induced mouse assessed as assessed as reduction in acetic acid induced writhing […]; format: functional
[27] = Half life in C57BL/6 mouse brain at 20 mg/kg, ip by LC-MS/MS analysis; format: ADME, organism-based
[28] = Half life in C57BL/6 mouse plasma at 20 mg/kg, ip by LC-MS/MS analysis; format: ADME, organism-based
[29] = Half life in C57BL/6 mouse […] at 20 mg/kg, ip by LC-MS/MS analysis; format: ADME, organism-based
[30] = target: T1, Kappa-type opioid receptor; test: Binding affinity to human KOR expressed in HEK293 cells assessed as inhibition of forskolin-stimulated cAMP accumulation by HTRF assay; format: cell-based
[31] = target: T2, Delta-type opioid receptor; test: Binding affinity to human DOR expressed in HEK293 cells assessed as inhibition constant by GTPgammaS assay; format: cell-based
[32] = target: Kappa-type opioid receptor (Cavia porcellus) (UniProt P41144); test: Agonist activity at KOR in guinea pig brain membranes assessed as stimulation of [35S]GTPgammaS binding relative to control; format: functional, cell membranes; conditions: Membrane, filed as agonist
[33] = target: T1, Kappa-type opioid receptor; test: Binding affinity to KOR (unknown origin) expressed in CHO-K1 cell membrane assessed as stimulation of [35S]-GTPgammaS binding incubated for 1.5 hrs by scintillation spectroscopy analysis relative DAMGO; format: cell membranes
[34] = Tmax in Sprague-Dawley rat at 1 mg/kg, iv by LC-MS analysis; format: ADME, organism-based; conditions: in vivo
[35] = Half life in human; format: ADME
[36] = target: T1, Kappa-type opioid receptor; test: Agonist activity at wild type human KOR receptor expressed in CHO cells assessed as stimulation of [35S]GTPgammaS binding measured after 30 mins by scintillation counting assay; format: functional, cell-based
[37] = target: Kappa-type opioid receptor (Cavia porcellus, UniProt P41144); test: Agonist activity at KOR in guinea pig brain membranes assessed as stimulation of [35S]GTPgammaS binding measured after 1 hr by liquid scintillation counting analysis; format: functional, cell membranes, Membrane
Sequence of Kappa-type opioid receptor (Cavia porcellus, UniProt P41144) (P41144 whole entry): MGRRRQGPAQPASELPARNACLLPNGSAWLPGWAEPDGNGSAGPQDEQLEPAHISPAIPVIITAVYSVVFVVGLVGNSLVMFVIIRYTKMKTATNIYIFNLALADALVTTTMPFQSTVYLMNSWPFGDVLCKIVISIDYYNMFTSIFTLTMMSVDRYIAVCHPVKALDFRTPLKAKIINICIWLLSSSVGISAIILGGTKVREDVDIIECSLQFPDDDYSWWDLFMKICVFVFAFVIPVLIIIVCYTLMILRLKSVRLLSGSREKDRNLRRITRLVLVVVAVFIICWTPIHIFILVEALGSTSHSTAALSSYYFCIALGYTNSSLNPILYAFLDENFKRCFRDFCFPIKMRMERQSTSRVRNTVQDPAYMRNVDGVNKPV

T2 sequence (P41143 whole entry): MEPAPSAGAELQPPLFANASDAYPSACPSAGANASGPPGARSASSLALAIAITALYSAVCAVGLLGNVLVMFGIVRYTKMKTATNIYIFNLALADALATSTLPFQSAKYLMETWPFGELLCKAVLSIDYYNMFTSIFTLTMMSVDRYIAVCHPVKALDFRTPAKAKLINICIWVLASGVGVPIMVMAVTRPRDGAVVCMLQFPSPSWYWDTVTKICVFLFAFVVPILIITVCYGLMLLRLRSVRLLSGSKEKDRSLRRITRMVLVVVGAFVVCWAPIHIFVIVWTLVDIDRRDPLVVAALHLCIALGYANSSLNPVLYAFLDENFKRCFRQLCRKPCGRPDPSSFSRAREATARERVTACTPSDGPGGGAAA
T3 sequence (P35372 whole entry): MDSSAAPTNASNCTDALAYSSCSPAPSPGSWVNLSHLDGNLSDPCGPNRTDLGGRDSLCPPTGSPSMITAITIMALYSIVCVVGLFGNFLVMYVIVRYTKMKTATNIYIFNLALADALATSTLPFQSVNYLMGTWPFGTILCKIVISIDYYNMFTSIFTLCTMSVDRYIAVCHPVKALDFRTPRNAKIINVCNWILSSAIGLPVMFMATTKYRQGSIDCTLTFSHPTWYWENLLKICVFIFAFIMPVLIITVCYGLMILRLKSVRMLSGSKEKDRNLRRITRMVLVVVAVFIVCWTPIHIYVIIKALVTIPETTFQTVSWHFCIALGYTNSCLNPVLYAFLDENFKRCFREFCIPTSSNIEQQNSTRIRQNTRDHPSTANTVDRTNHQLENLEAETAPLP
T1 sequence (P41145 whole entry): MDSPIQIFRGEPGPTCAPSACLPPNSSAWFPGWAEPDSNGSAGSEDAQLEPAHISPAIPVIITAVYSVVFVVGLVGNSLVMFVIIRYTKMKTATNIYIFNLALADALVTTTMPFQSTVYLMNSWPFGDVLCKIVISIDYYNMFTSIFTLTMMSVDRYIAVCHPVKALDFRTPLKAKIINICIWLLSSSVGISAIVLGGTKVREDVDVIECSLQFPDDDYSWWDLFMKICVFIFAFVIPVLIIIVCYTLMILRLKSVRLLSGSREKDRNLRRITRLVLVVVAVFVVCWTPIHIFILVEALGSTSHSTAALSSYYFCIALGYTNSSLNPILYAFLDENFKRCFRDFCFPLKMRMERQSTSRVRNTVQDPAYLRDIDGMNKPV
Sequence of Kappa-type opioid receptor (Cavia porcellus) (P41144 whole entry): as the sequence (P41144 whole entry) above
Sequence of Kappa-type opioid receptor (Mus musculus, UniProt P33534) (P33534 whole entry): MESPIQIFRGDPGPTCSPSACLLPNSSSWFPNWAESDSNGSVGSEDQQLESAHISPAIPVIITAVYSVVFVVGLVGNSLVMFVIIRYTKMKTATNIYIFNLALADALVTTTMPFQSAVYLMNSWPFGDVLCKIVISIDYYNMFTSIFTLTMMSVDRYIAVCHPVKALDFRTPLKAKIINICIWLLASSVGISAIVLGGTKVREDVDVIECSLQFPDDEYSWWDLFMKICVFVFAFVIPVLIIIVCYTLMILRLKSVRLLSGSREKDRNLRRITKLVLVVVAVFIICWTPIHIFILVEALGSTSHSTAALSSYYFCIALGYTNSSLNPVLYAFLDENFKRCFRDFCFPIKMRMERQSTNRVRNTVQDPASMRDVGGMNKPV

## COC(=O)N1CCN(C(=O)Cc2ccc(Cl)c(Cl)c2)C(CN2CCCC2)C1 (configuration not stated)
[1]
  IC50: 0.041 nM
Mus musculus [2]
  ED50: 0.00052 mg/kg

## C[C@H]1[C@H]2Cc3ccc(O)cc3[C@@]1(C)CCN2CCc1ccccc1
Mus musculus [3]; Mus musculus, read-out: ED50
  ED50: 6.3 mg/kg

## CN(C(=O)C(c1ccccc1)c1ccccc1)[C@H](CN1CC[C@H](O)C1)c1ccccc1 [ASIMADOLINE]
[4]
  Ki: 5.6 nM

## C[C@H]1[C@H]2Cc3ccc(C(N)=O)cc3[C@@]1(C)CCN2CC1CC1
[5]
  Ki: 4.9 nM
Mus musculus [6]
  ED50: 0.21 nmol

## CN(C(=O)/C=C/c1ccoc1)[C@@H]1CC[C@@]2(O)[C@H]3Cc4ccc(O)c5c4[C@@]2(CCN3CC2CC2)[C@H]1O5 [NALFURAFINE]
Mus musculus [7]; Mus musculus, read-out: ED50
  ED50: 0.003 mg/kg
Mus musculus [3]; Mus musculus, read-out: ED50
  ED50: 0.062 mg/kg

## CCCC[C@@H](NC(=O)[C@@H](CC1=CC=CCC1)NC(=O)[C@H](N)Cc1ccccc1)C(=O)N[C@H](CCCNC(=N)N)C(N)=O
[8]
  Ki: < 1 nM

## O=C(N[C@@H]1CC[C@@]2(O)[C@H]3Cc4ccc(O)c5c4[C@@]2(CCN3CC2CC2)[C@H]1O5)c1ccc2ccccc2c1
Mus musculus [9]
  ED50: 18.7 pmol

## CC(C)C[C@@H](NC(=O)[C@@H](Cc1ccccc1)NC(=O)[C@H](N)Cc1ccccc1)C(=O)N[C@H](CCCCN)C(=O)N1CCC(N)(C(=O)O)CC1 [listing 1 of 2 here]
[8]
  Ki: 0.32 nM
Mu-type opioid receptor [10]
  Ki: > 10000 nM

## COC(=O)[C@@H]1C[C@H](OC(=O)C2=Cc3ccccc3C2)C(=O)[C@H]2[C@@]1(C)CC[C@H]1C(=O)O[C@H](c3ccoc3)C[C@]21C
[8]
  Ki: 49.7 nM
Mu-type opioid receptor [10]
  Ki: 538 nM
[11]
  EC50: 853 nM
Mu-type opioid receptor [12]
  EC50: 49.5 nM

## CC(C)=CCN1CC[C@]2(C)c3cc(O)ccc3C[C@H]1[C@H]2C [(+)-PENTAZOCINE]
[8]
  Ki: 7.6 nM
[11]
  EC50: 40 nM
[13]
  Ki: 62 nM

## CC(C)=CCN1CC[C@@]2(C)c3cc(O)ccc3CC1C2C (some centres not stated) [PENTAZOCINE]
[8]
  Ki: 7.6 nM
[11]
  EC50: 40 nM
[13]
  Ki: 62 nM

## CN1CC[C@]23c4c5ccc(O)c4O[C@H]2C(=O)CC[C@@]3(OCCCc2ccccc2)[C@H]1C5
Mu-type opioid receptor [14]
  Ki: 0.073 nM
[15]
  Ki: 0.3 nM
[16]
  Ki: 0.13 nM
Mus musculus [17]
  AD50: 0.0007 mg/kg

## CC(C)C[C@@H](NC(=O)[C@@H](CC1=CC=CCC1)NC(=O)[C@H](N)Cc1ccccc1)C(=O)N[C@H](CCCN)C(=O)N1CCOCC1
[8]
  Ki: 0.08 nM
Mus musculus [18]
  AD50: 0.013 mg/kg

## C[C@H]1[C@@H]2Cc3ccc(O)cc3[C@]1(C)CCN2CC1CC1
Mus musculus [19]
  ED50: 0.47 mg/kg
Mus musculus [20]
  ED50: 0.077 mg/kg

## CC(C)C[C@@H](NC(=O)[C@@H](Cc1ccccc1)NC(=O)[C@H](N)Cc1ccccc1)C(=O)N[C@H](CCCCN)C(=O)N1CCC(N)(C(=O)O)CC1 [listing 2 of 2 here]
Mus musculus [21]
  ED50: 0.07 mg/kg
Mus musculus [22]
  ED50: 0.3 mg/kg
Mus musculus [23]
  ED50: 0.3 mg/kg
Mus musculus [24]
  ED50: 0.38 mg/kg

## O=C(N[C@@H]1C=C[C@H]2[C@H]3Cc4ccc(O)c5c4[C@@]2(CCN3CC2CC2)[C@H]1O5)c1cccc(I)c1
Mu-type opioid receptor [10]
  Ki: 0.021 nM
[15]
  Ki: 0.006 nM
[5]
  Ki: 0.08 nM
Mus musculus [25]
  ED50: 0.33 mg/kg
Mus musculus [26]
  ED50: 1 mg/kg

## COC(=O)[C@@H]1C[C@H](OC(C)=O)[C@H](O)[C@H]2[C@@]1(C)CC[C@H]1C(=O)O[C@H](c3ccoc3)C[C@]21C [1-ALPHA-HYDROXYSALVINORIN A]
[27]
  half-life: 3.75 h
[28]
  half-life: 3.75 h
[29]
  half-life: 3.75 h

## O=C1CNC(=O)[C@H](Cc2ccccc2)NC(=O)[C@@H](Cc2c[nH]c3ccccc23)NC(=O)CCN1 (cyclo(FG[βAla][dW]))
[30]
  Ki: > 10 nM
[5]
  Ki: > 10 nM

## N=C(N)Nc1ccc2c3c([nH]c2c1)[C@@H]1Oc2c(O)ccc4c2[C@@]12CCN(CC1CC1)[C@H](C4)[C@]2(O)C3
Mu-type opioid receptor [14]
  Ki: 20.3 nM
[31]
  Ki: 81.8 nM

## O=C(N[C@@H]1CC[C@@]2(O)[C@H]3Cc4ccc(O)c5c4[C@@]2(CCN3CC2CC2)[C@H]1O5)c1cc[n+](Cc2ccccc2)cc1
[8]
  Ki: 3.46 nM
Mu-type opioid receptor [10]
  Ki: 3.46 nM
[5]
  Ki: 722 nM

## C#Cc1occc1[C@@H]1C[C@@]2(C)[C@@H](CC[C@@]3(C)[C@H](C(=O)OC)C[C@H](OC(C)=O)C(=O)[C@@]32C)C(=O)O1
[8]
  Ki: 2.5 nM

## CCCCN(CCc1ccccc1)CCc1cccc(O)c1
Mu-type opioid receptor [10]
  Ki: 360 nM
[32]
  Activity: 45.5%
[13]
  Ki: 2700 nM

## C[N+]1(CC2CC2)CC[C@]23c4c5ccc(O)c4O[C@H]2C(=O)CC[C@@]3(O)[C@H]1C5 (some centres not stated) [METHYLNALTREXONE]
Mu-type opioid receptor [10]
  Ki: 10 nM
[11]
  EC50: 6.7 nM
[33]
  Ki: ~30 nM

## Cc1cc(C)cc([C@@H]2CCCN2Cc2ccc(Oc3ccc(C(N)=O)cc3F)cc2)c1 [ATICAPRANT]
[34]
  Tmax: 1 h
[35]
  half-life: 21 h

## Oc1ccc2c(c1)[C@@]13CCCC[C@H]1[C@@H](C2)N(CC1CCC1)CC3 [BUTORPHAN]
Mus musculus [7]
  ED50: 7.3 nmol
Mus musculus [3]
  ED50: 0.79 nmol

## Cc1ccc(CSc2nnc(-c3ccccn3)n2Cc2ccco2)cc1C(F)(F)F
Mu-type opioid receptor [10]
  Ki: 1900 nM
[13]
  Ki: 5350 nM

## O=C(O[C@@H]1[C@@H]2[C@H]3C[C@@H](C[C@H]2C(=O)O[C@H]1c1ccoc1)OC3=O)c1ccccc1
[15]
  Ki: 9 nM
[36]
  EC50: 2 nM
[37]
  Ki: > 5000 nM

## CCCC[C@@H](NC(=O)[C@@H](CC1=CC=CCC1)NC(=O)[C@H](N)Cc1ccccc1)C(=O)N[C@H](CCCNC(=N)N)C(=O)NCc1ccncc1
[8]
  Ki: 0.24 nM
Mus musculus [18]
  AD50: 0.007 mg/kg
